Laboratory results from patent US11590139B2, “Substituted aminopurine compounds, compositions thereof, and methods of treatment therewith” (Signal Pharmaceuticals, LLC, priority 2014, dated 2023).
Read-outs that look alike come from different tables or passages of the source.

System: Lox-IMVI melanoma cell line
Assay: Lox-IMVI anti-proliferative assay (growth inhibition, Cell Titer-Glo)
Format: cell-based, human
Method in brief: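 Cells grown in RPMI + 10% FBS were exposed to compound at 0.5 nM to 10 μM (10-point, 3-fold dilution, duplicate, 0.2% DMSO final) for 72 h at 37 °C, 5% CO2. Viability was read by ATP luminescence at t0 and 72 h. IC50 came from a four-parameter logistic fit normalized to DMSO control.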

[1] = Homo sapiens, Lox-IMVI melanoma cell line, anti-proliferative assay, read-out: Activity (IC50 activity level)
[2] = Homo sapiens, Lox-IMVI anti-proliferative assay, cell-based, read-out: Activity (IC50 activity level)

Row | Compound | IC50 [1] | IC50 [2] | further results
1 | CNC(=O)N1CCC[C@@H](Nc2ncc3nc(Nc4c(Cl)cc(C(F)(F)F)cc4Cl)n([C@H]4CC[C@@H](C(N)=O)CC4)c3n2)C1 [Example 796, (R)-3-(9-((1s,4S)-4-carbamoylcyclohexyl)-8-(2,6-dichloro-4-(trifluoromethyl)phenylamino)-9H-purin-2-ylamino)-N-methylpiperidine-1-carboxamide] | > 1000 nM |  | 
2 | CC(=O)N1CCC[C@@H](Nc2ncc3nc(Nc4c(F)cc(F)cc4Cl)n([C@H]4CC[C@@H](C(N)=O)CC4)c3n2)C1 [Example 797, (1S,4s)-4-(2-((R)-1-acetylpiperidin-3-ylamino)-8-(2-chloro-4,6-difluorophenylamino)-9H-purin-9-yl)cyclohexanecarboxamide] | > 1000 nM |  | 
3 | CC(=O)N1CCC[C@@H](Nc2ncc3nc(Nc4c(Cl)cc(C(F)(F)F)cc4Cl)n([C@H]4CC[C@@H](C(N)=O)CC4)c3n2)C1 [Example 798, (1S,4s)-4-(2-((R)-1-acetylpiperidin-3-ylamino)-8-(2,6-dichloro-4-(trifluoromethyl)phenylamino)-9H-purin-9-yl)cyclohexanecarboxamide] | > 1000 nM |  | 
4 | CC(=O)N1CCC[C@@H](Nc2ncc3nc(Nc4c(Cl)cc(F)cc4Cl)n([C@H]4CC[C@@H](C(N)=O)CC4)c3n2)C1 [Example 799, (1S,4s)-4-(2-((R)-1-acetylpiperidin-3-ylamino)-8-(2,6-dichloro-4-fluorophenylamino)-9H-purin-9-yl)cyclohexanecarboxamide] |  | > 1000 nM | 
5 | CC(=O)N1CCC[C@@H](Nc2ncc3nc(Nc4c(Cl)cccc4Cl)n([C@H]4CC[C@@H](C(N)=O)CC4)c3n2)C1 [Example 800, (1S,4s)-4-(2-((R)-1-acetylpiperidin-3-ylamino)-8-(2,6-dichlorophenylamino)-9H-purin-9-yl)cyclohexanecarboxamide] |  | > 1000 nM | 
6 | N#Cc1cc(F)c(Nc2nc3cnc(N[C@@H]4CCOC[C@H]4F)nc3n2[C@H]2CC[C@@H](C(N)=O)CC2)c(F)c1 [Example 801, (1S,4s)-4-(8-(4-cyano-2,6-difluorophenylamino)-2-((3S,4R)-3-fluorotetrahydro-2H-pyran-4-ylamino)-9H-purin-9-yl)cyclohexanecarboxamide] |  | < 250 nM | 
7 | C[C@]1(C(N)=O)CC[C@@H](n2c(Nc3c(Cl)cc(Cl)cc3Cl)nc3cnc(N[C@H]4CCOC[C@@H]4F)nc32)CC1 [Example 802, (1R,4s)-4-(2-(((3R,4S)-3-fluorotetrahydro-2H-pyran-4-yl)amino)-8-((2,4,6-trichlorophenyl)amino)-9H-purin-9-yl)-1-methylcyclohexane-1-carboxamide] |  | < 250 nM | 
8 | (R)-isopropyl 3-(9-((1s,4S)-4- carbamoylcyclohexyl)-8-(2-chloro-4- cyano-6-fluorophenylamino)-9H-purin- 2-ylamino)piperidine-1-carboxylate [Example 776] |  |  | IC50 (Lox-IMVI melanoma cell line, anti-proliferative assay, read-out: Activity (IC50 activity level)): 500 to 1000 nM
9 | (R)-methyl 3-(9-((1s,4S)-4- carbamoylcyclohexyl)-8-(2,3,4- trifluorophenylamino)-9H-purin-2- ylamino)piperidine-1-carboxylate [Example 414] |  |  | IC50 (Lox-IMVI anti-proliferative assay, IC50 activity level, read-out: Activity): > 1000 nM
